Test results: US20110173718A1, “HERBICIDE TOLERANT PLANTS” (SYNGENTA CROP PROTECTION, INC., priority 2008, published 2011)

System: weeds
Assay: Glasshouse weed control by HST/HPPD (mesotrione) mixtures, pre-emergence
Type: in vivo
Conditions: 1 g/ha, N = 3
Experimental: Weed seeds are planted out in trays containing suitable soil (for example 50% peat, 50% John Innes soil no 3) and grown in the glass house conditions under 24-27° C. day; 18-21° C. night and approximately a 14 h (or longer in UK summer) photoperiod. Humidity is ˜65% and light levels up to 2000 μmol/m^2 at bench level. Trays are sprayed with test chemicals dissolved in water with 0.2-0.25% X-77 surfactant and sprayed from a boom on a suitable track sprayer moving at about 2 mph in a suitable track sprayer (for example a DeVries spray chamber with the nozzle about 2 inches from the plant tops). Spray volume is suitably 500-1000 l/ha. Sprays are carried out both pre-emergence and over small plants at about 7-12 d post-emergence
Plants are assessed 14 DAT and herbicidal damage is scored on a scale from 0 to 100%. The HST inhibitor compound 2.30 (designated compound A in table 16 and 17), haloxydine (compound 1.1) and compound 2.13 (designated compound AE in tables 16 and 17) are sprayed at rates between 0 and 500 g/ha.

CS(=O)(=O)c1ccc(C(=O)C2C(=O)CCCC2=O)c([N+](=O)[O-])c1 [Mesotrione, mesotrione, reference compound]
% Damage at 14 DAA, mesotrione alone (ALOMY): 0% | % Damage at 14 DAA, mesotrione alone (AMARE): 2% | % Damage at 14 DAA, mesotrione alone (ECHCG): 0% | % Damage at 14 DAA, mesotrione alone (IPOHE): 0% | % Damage at 14 DAA, mesotrione alone (SETFA): 0% | % Damage at 14 DAA, mesotrione alone (SOLNI): 17%
